Measurements as given in the supplement of paper PMC10307832.

Columns and labels:
Test in all cases: relative viability (nuclei count vs DMSO), 5 days (fraction); higher = more cells survive
Lapatinib + Pictilisib = compound: CS(=O)(=O)CCNCc1ccc(-c2ccc3ncnc(Nc4ccc(OCc5cccc(F)c5)c(Cl)c4)c3c2)o1 [Lapatinib] + CS(=O)(=O)N1CCN(Cc2cc3nc(-c4cccc5[nH]ncc45)nc(N4CCOCC4)c3s2)CC1 [Pictilisib] (partner 1 µM)
How it was run: (§1)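 Lung cancer cell lines were seeded in 1536-well plates and dosed by pin tool the next day, with either a single drug or a fixed anchor-drug dose combined with five library-drug doses (not always all listed) spaced in √10 steps. Five days later, one step fixed the cells and stained their nuclei (final 0.05% Triton X-100, 1% formaldehyde, 1 ug/ml Hoechst), and nuclei were counted on 4× images. Relative viability is the nuclei count in treated wells divided by the count in vehicle wells, and each value is the median of duplicate plates.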

Lapatinib + Crizotinib = compound: CS(=O)(=O)CCNCc1ccc(-c2ccc3ncnc(Nc4ccc(OCc5cccc(F)c5)c(Cl)c4)c3c2)o1 [Lapatinib] + C[C@@H](Oc1cc(-c2cnn(C3CCNCC3)c2)cnc1N)c1c(Cl)ccc(F)c1Cl [Crizotinib] (partner 1 µM)
How it was run: as §1

Wnt-C59 + OSI-027 = compound: CC1=NC=CC(=C1)C2=CC=C(C=C2)CC(=O)NC3=CC=C(C=C3)C4=CN=CC=C4 [Wnt-C59] + COc1cccc2cc(-c3nc([C@H]4CC[C@H](C(=O)O)CC4)n4ncnc(N)c34)[nH]c12 [OSI-027] (partner 0.5 µM)
How it was run: as §1

Lapatinib + Vorinostat = compound: CS(=O)(=O)CCNCc1ccc(-c2ccc3ncnc(Nc4ccc(OCc5cccc(F)c5)c(Cl)c4)c3c2)o1 [Lapatinib] + O=C(CCCCCCC(=O)Nc1ccccc1)NO [Vorinostat] (partner 1 µM)
How it was run: as §1

Row | Cell Line | relative viability (Lapatinib + Pictilisib; first compound 0.02 µM) | relative viability (Lapatinib + Pictilisib; first compound 0.2 µM) | relative viability (Lapatinib + Pictilisib; first compound 0.6325 µM) | relative viability (Lapatinib + Pictilisib; first compound 2 µM) | relative viability (Lapatinib + Crizotinib; first compound 0.02 µM) | relative viability (Lapatinib + Crizotinib; first compound 0.2 µM) | relative viability (Lapatinib + Crizotinib; first compound 0.6325 µM) | relative viability (Lapatinib + Crizotinib; first compound 2 µM) | relative viability (Wnt-C59 + OSI-027; first compound 0.001 µM) | relative viability (Wnt-C59 + OSI-027; first compound 0.01 µM) | relative viability (Wnt-C59 + OSI-027; first compound 0.03162 µM) | relative viability (Wnt-C59 + OSI-027; first compound 0.1 µM) | relative viability (Lapatinib + Vorinostat; first compound 0.02 µM) | relative viability (Lapatinib + Vorinostat; first compound 0.06325 µM) | relative viability (Lapatinib + Vorinostat; first compound 0.2 µM) | relative viability (Lapatinib + Vorinostat; first compound 0.6325 µM) | relative viability (Lapatinib + Vorinostat; first compound 2 µM) | relative viability (Lapatinib + Pictilisib; first compound 0.06325 µM) | relative viability (Lapatinib + Crizotinib; first compound 0.06325 µM)
1 | NCI-H358 | 0.334 | 0.301 | 0.304 | 0.309 | 0.577 | 0.523 | 0.363 | 0.26 | 0.838 | 0.769 | 0.908 | 0.767 | 0.596 | 0.418 | 0.511 | 0.362 | 0.215 |  | 
2 | NCI-H441 | 0.332 | 0.431 | 0.422 | 0.453 | 0.681 | 0.803 | 0.689 | 0.721 | 0.754 | 0.616 | 0.718 | 0.568 | 0.713 |  | 0.84 | 0.757 | 0.887 | 0.417 | 0.861
3 | NCI-H460 | 0.057 | 0.303 | 0.355 | 0.251 | 0.892 | 1.11 | 0.802 | 0.983 | 0.663 | 0.739 | 0.88 | 0.624 | 0.671 | 0.67 | 0.815 | 0.715 | 0.533 | 0.276 | 0.953
4 | NCI-H520 | 0.308 | 0.269 | 0.332 | 0.348 | 0.726 | 0.863 | 0.812 | 0.745 | 0.256 | 0.339 | 0.3 | 0.252 | 0.7 | 0.684 | 0.707 | 0.671 | 0.76 | 0.285 | 0.759
5 | NCI-H596 | 0.39 | 0.4 | 0.415 | 0.407 | 0.916 | 1 | 0.997 | 0.659 | 0.733 | 0.499 | 0.952 | 0.719 |  | 0.538 | 0.606 | 0.711 | 0.537 | 0.388 | 0.849
6 | NCI-H647 |  |  | 0.364 | 0.431 | 1.01 | 1.03 | 1.03 | 0.923 | 0.644 | 0.763 | 0.779 | 0.676 | 0.627 | 0.403 | 0.627 | 0.498 | 0.584 | 0.435 | 0.904
7 | NCI-H650 |  | 0.888 | 0.782 | 1.04 |  | 0.872 | 0.624 | 0.69 | 0.581 | 0.661 | 0.485 | 0.532 |  | 0.38 | 0.434 | 0.577 | 0.538 | 0.918 | 0.637
8 | NCI-H661 | 0.397 | 0.29 | 0.307 | 0.324 | 0.979 | 1.29 | 1.05 | 0.762 | 0.719 | 0.699 | 0.803 | 0.758 | 0.758 | 0.783 | 0.79 | 0.736 | 0.605 | 0.381 | 1.15
9 | NCI-H727 | 0.339 | 0.434 | 0.357 | 0.343 | 0.77 | 0.657 | 0.718 | 0.572 | 0.759 | 0.581 | 0.641 | 0.541 | 1.17 |  | 1.17 | 1.45 | 1.02 | 0.246 | 0.663
10 | NCI-H838 | 0.48 | 0.505 | 0.449 | 0.458 | 0.838 | 1.07 | 0.855 | 0.757 | 0.435 | 0.385 | 0.331 | 0.411 | 0.699 | 0.69 | 0.743 | 0.732 | 0.544 | 0.409 | 0.764
11 | NCI-H1355 |  | 0.496 | 0.499 | 0.285 |  | 1.02 | 1.02 | 0.606 | 0.446 | 0.302 | 0.366 | 0.417 | 0.574 | 0.541 | 0.568 | 0.61 | 0.395 | 0.419 | 0.854
12 | NCI-H1437 | 0.5 | 0.386 | 0.482 | 0.422 | 0.85 | 0.94 | 0.914 | 1 | 0.859 | 0.927 | 0.859 | 0.911 | 0.782 | 0.861 | 0.825 | 0.793 | 0.527 | 0.314 | 0.919
13 | NCI-H1650 | 0.253 | 0.672 | 0.663 | 0.503 | 0.977 | 0.854 | 0.9 | 0.596 | 0.756 | 0.569 | 0.645 | 0.647 | 0.474 | 0.578 | 0.554 | 0.516 | 0.664 | 0.415 | 0.795
14 | NCI-H1651 | 0.561 | 0.526 | 0.613 | 0.596 | 0.907 | 0.884 | 0.849 | 0.904 | 0.767 | 0.646 | 0.696 | 0.709 | 0.615 | 0.517 | 0.477 | 0.543 | 0.521 | 0.472 | 0.845
15 | NCI-H1666 | 0.33 | 0.39 | 0.329 | 0.2 | 0.787 | 0.847 | 0.842 | 0.357 | 0.825 | 0.849 | 0.873 | 0.876 | 0.951 | 0.978 | 1.05 | 0.961 | 0.789 | 0.327 | 1.05
16 | NCI-H1734 |  | 0.451 | 0.47 | 0.534 |  | 0.737 | 0.669 | 0.663 | 0.622 | 0.518 | 0.596 | 0.3 |  | 0.708 | 0.816 | 0.88 | 0.792 | 0.354 | 0.481
17 | NCI-H1755 | 0.244 | 0.433 | 0.437 | 0.371 | 0.851 | 0.899 | 0.818 | 0.809 | 0.8 | 0.72 | 0.644 | 0.663 | 0.731 | 0.689 | 0.801 | 0.76 | 0.676 | 0.363 | 0.82
